Results taken from PMC8079033, “Design, synthesis, anticancer evaluation, and molecular modelling studies of novel tolmetin derivatives as potential VEGFR-2 inhibitors and apoptosis inducers” (Journal of Enzyme Inhibition and Medicinal Chemistry, 2021).

What was measured:
[1] = tested on: A498; assay: NCI 60-cell line one-dose antiproliferative screen (SRB); format: cell-based; details: Homo sapiens, read-out: growth inhibition % (GI%)
Protocol: (§1) Anticancer activity screening of the newly synthesised compounds was measured in vitro utilising 60 different human tumour cell lines provided by US National Cancer Institute according to previously reported standard procedure[41–43] as follows: Cells are inoculated into 96-well microtiter plates in 100 ml. After cell inoculation, the microtiter plates are incubated at 37 °C, 5% CO2, 95% air, and 100% relative humidity for 24 h prior to addition of experimental compounds. After 24 h, two plates of each cell line are fixed in situ with TCA, to represent a measurement of the cell population for each cell line at the time of compound addition (Tz). Experimental compounds are solubilised in dimethyl sulfoxide at 400-fold the desired final maximum test concentration and stored frozen prior to use. At the time of compound addition, an aliquot of frozen concentrate is thawed and diluted to twice the desired final maximum test concentration with a complete medium containing […] gentamicin. Aliquots of […] of the compounds dilutions are added to the appropriate microtiter wells already containing 100 ml of medium, resulting in the required final compound concentration. Following compound addition, the plates are incubated for an additional 48 h at 37 °C, 5% CO2, 95% air, and 100% relative humidity. For adherent cells, the assay is terminated by the addition of cold trichloroacetic acid (TCA). Cells are fixed in situ by the gentle addition of 50 ml of cold 50% (w/v) TCA (final concentration, 10% TCA) and incubated for […] at 4 °C. The supernatant is discarded, and the plates are washed five times with tap water and air-dried. Sulforhodamine B (SRB) solution (100 ml) at 0.4% (w/v) in 1% acetic acid is added to each well, and plates are incubated for 10 min at room temperature. After staining, the unbound dye is removed by washing five times with 1% acetic acid and the plates are air-dried. The bound stain is subsequently solubilised with a 10 mM trizma base, and the absorbance is read on an automated plate reader at a wavelength of 515 nm. For suspension cells, the methodology is the same except that the assay is terminated by fixing settled cells at the bottom of the wells by gently adding 50 ml of 80% TCA (final concentration, 16% TCA). Using the absorbance measurements [time zero, (Tz), control growth, (C), and test growth in the presence of compound (Ti)], the percentage growth is calculated for each compound. The One-dose data are reported as a mean graph of the percent growth of treated cells. The reported number is growth relative to the no-compound control, and relative to the time zero number of cells. This allows the detection of both growth inhibition and lethality.
(§2) Fifteen newly synthesised compounds were tested for their in vitro antiproliferative activity by the National Cancer Institute (NCI), Maryland, USA[50], under the Developmental Therapeutic Program (DTP)[41]^,[43]^,[51]^,[52]. The tested compounds were evaluated at a concentration of 10 µM on a panel of 60 tumour cell lines representing leukaemia and non-small cell lung, colon, CNS, melanoma, ovarian, renal, prostate, and breast cancers. The antiproliferative activity was presented by the NCI as percent growth of the treated cells and is presented in Table 1 as growth inhibition percentage (GI%) achieved by the tested compounds.

[2] = tested on: A549/ATCC; assay: as above; format: cell-based; details: Homo sapiens, read-out: growth inhibition % (GI%)
Protocol: as §1, §2

[3] = tested on: ACHN; assay: as above; format: cell-based; details: Homo sapiens, read-out: growth inhibition % (GI%)
Protocol: as §1, §2

[4] = tested on: CAKI-1; assay: as above; format: cell-based; details: Homo sapiens, read-out: growth inhibition % (GI%)
Protocol: as §1, §2

[5] = tested on: EKVX; assay: as above; format: cell-based; details: Homo sapiens, read-out: growth inhibition % (GI%)
Protocol: as §1, §2

[6] = tested on: HCT-116; assay: as above; format: cell-based; details: Homo sapiens, read-out: growth inhibition % (GI%)
Protocol: as §1, §2

[7] = tested on: HOP-92; assay: as above; format: cell-based; details: Homo sapiens, read-out: growth inhibition % (GI%)
Protocol: as §1, §2

[8] = tested on: IGROV1; assay: as above; format: cell-based; details: Homo sapiens, IGROV-1, read-out: growth inhibition % (GI%)
Protocol: as §1, §2

[9] = tested on: K-562; assay: as above; format: cell-based; details: Homo sapiens, K562, read-out: growth inhibition % (GI%)
Protocol: as §1, §2

[10] = tested on: KM12; assay: as above; format: cell-based; details: Homo sapiens, read-out: growth inhibition % (GI%)
Protocol: as §1, §2

[11] = tested on: LOX IMVI; assay: as above; format: cell-based; details: Homo sapiens, read-out: growth inhibition % (GI%)
Protocol: as §1, §2

[12] = tested on: M14; assay: as above; format: cell-based; details: Homo sapiens, read-out: growth inhibition % (GI%)
Protocol: as §1, §2

[13] = tested on: MALME-3M; assay: as above; format: cell-based; details: Homo sapiens, read-out: growth inhibition % (GI%)
Protocol: as §1, §2

[14] = tested on: MCF7; assay: as above; format: cell-based; details: Homo sapiens, read-out: growth inhibition % (GI%)
Protocol: as §1, §2

[15] = tested on: MDA-MB-231/ATCC; assay: as above; format: cell-based; details: Homo sapiens, read-out: growth inhibition % (GI%)
Protocol: as §1, §2

[16] = tested on: MDA-MB-435; assay: as above; format: cell-based; details: Homo sapiens, read-out: growth inhibition % (GI%)
Protocol: as §1, §2

[17] = tested on: MDA-MB-468; assay: as above; format: cell-based; details: Homo sapiens, read-out: growth inhibition % (GI%)
Protocol: as §1, §2

[18] = tested on: NCI-H226; assay: as above; format: cell-based; details: Homo sapiens, read-out: growth inhibition % (GI%)
Protocol: as §1, §2

[19] = tested on: NCI-H23; assay: as above; format: cell-based; details: Homo sapiens, read-out: growth inhibition % (GI%)
Protocol: as §1, §2

[20] = tested on: NCI-H322M; assay: as above; format: cell-based; details: Homo sapiens, read-out: growth inhibition % (GI%)
Protocol: as §1, §2

[21] = tested on: NCI-H522; assay: as above; format: cell-based; details: Homo sapiens, read-out: growth inhibition % (GI%)
Protocol: as §1, §2

[22] = tested on: NCI/ADR-RES; assay: as above; format: cell-based; details: Homo sapiens, read-out: growth inhibition % (GI%)
Protocol: as §1, §2

[23] = tested on: OVCAR-4; assay: as above; format: cell-based; details: Homo sapiens, read-out: growth inhibition % (GI%)
Protocol: as §1, §2

[24] = tested on: OVCAR-5; assay: as above; format: cell-based; details: Homo sapiens, read-out: growth inhibition % (GI%)
Protocol: as §1, §2

[25] = tested on: OVCAR-8; assay: as above; format: cell-based; details: Homo sapiens, read-out: growth inhibition % (GI%)
Protocol: as §1, §2

[26] = tested on: PC-3; assay: as above; format: cell-based; details: Homo sapiens, read-out: growth inhibition % (GI%)
Protocol: as §1, §2

[27] = tested on: RPMI-8226; assay: as above; format: cell-based; details: Homo sapiens, read-out: growth inhibition % (GI%)
Protocol: as §1, §2

[28] = tested on: SF-268; assay: as above; format: cell-based; details: Homo sapiens, read-out: growth inhibition % (GI%)
Protocol: as §1, §2

[29] = tested on: SF-539; assay: as above; format: cell-based; details: Homo sapiens, read-out: growth inhibition % (GI%)
Protocol: as §1, §2

[30] = tested on: SK-MEL-5; assay: as above; format: cell-based; details: Homo sapiens, read-out: growth inhibition % (GI%)
Protocol: as §1, §2

[31] = tested on: SN 12 C; assay: as above; format: cell-based; details: Homo sapiens, SN12C, read-out: growth inhibition % (GI%)
Protocol: as §1, §2

[32] = tested on: SNB-19; assay: as above; format: cell-based; details: Homo sapiens, read-out: growth inhibition % (GI%)
Protocol: as §1, §2

[33] = tested on: SNB-75; assay: as above; format: cell-based; details: Homo sapiens, read-out: growth inhibition % (GI%)
Protocol: as §1, §2

[34] = tested on: SR; assay: as above; format: cell-based; details: Homo sapiens, read-out: growth inhibition % (GI%)
Protocol: as §1, §2

[35] = tested on: U251; assay: as above; format: cell-based; details: Homo sapiens, U-251, read-out: growth inhibition % (GI%)
Protocol: as §1, §2

[36] = tested on: UACC-257; assay: as above; format: cell-based; details: Homo sapiens, read-out: growth inhibition % (GI%)
Protocol: as §1, §2

[37] = tested on: UACC-62; assay: as above; format: cell-based; details: Homo sapiens, read-out: growth inhibition % (GI%)
Protocol: as §1, §2

[38] = tested on: UO-31; assay: as above; format: cell-based; details: Homo sapiens, read-out: growth inhibition % (GI%)
Protocol: as §1, §2

melting point: 195 to 197 °C
SMILES: Cc1ccc(C(=O)c2ccc(CC(=O)NN=C3C(=O)Nc4ccc(Br)cc43)n2C)cc1 [Compound 6b, N′-(5-Bromo-2-oxoindolin-3-ylidene)-2–(1-methyl-5–(4-methylbenzoyl)-1H-pyrrol-2-yl)acetohydrazide]
inhibition at 10 µM [1]: 10.2%
inhibition at 10 µM [2]: < 10%
inhibition at 10 µM [3]: < 10%
inhibition at 10 µM [4]: 15.4%
inhibition at 10 µM [5]: < 10%
inhibition at 10 µM [6]: < 10%
inhibition at 10 µM [7]: < 10%
inhibition at 10 µM [8]: < 10%
inhibition at 10 µM [9]: 10.6%
inhibition at 10 µM [10]: < 10%
inhibition at 10 µM [11]: 10%
inhibition at 10 µM [12]: < 10%
inhibition at 10 µM [13]: < 10%
inhibition at 10 µM [14]: < 10%
inhibition at 10 µM [15]: < 10%
inhibition at 10 µM [16]: < 10%
inhibition at 10 µM [17]: < 10%
inhibition at 10 µM [18]: < 10%
inhibition at 10 µM [19]: 13.7%
inhibition at 10 µM [20]: < 10%
inhibition at 10 µM [21]: 13.2%
inhibition at 10 µM [22]: < 10%
inhibition at 10 µM [23]: 10.1%
inhibition at 10 µM [24]: < 10%
inhibition at 10 µM [25]: < 10%
inhibition at 10 µM [26]: < 10%
inhibition at 10 µM [27]: < 10%
inhibition at 10 µM [28]: < 10%
inhibition at 10 µM [29]: < 10%
inhibition at 10 µM [30]: < 10%
inhibition at 10 µM [31]: < 10%
inhibition at 10 µM [32]: < 10%
inhibition at 10 µM [33]: 36.3%
inhibition at 10 µM [34]: < 10%
inhibition at 10 µM [35]: 34.4%
inhibition at 10 µM [36]: < 10%
inhibition at 10 µM [37]: < 10%
inhibition at 10 µM [38]: 25%
